# Measurements taken from patent US20230293539A1, “MLL1-WDR5 PROTEIN-PROTEIN INTERACTION INHIBITOR COMPOUNDS AND USES THEREOF” (HUYABIO International, LLC, priority 2022, published 2023).
# Read-outs that look alike come from different tables or passages of the source.
# Assays:
# HDAC6 = HDAC6 (Homo sapiens, UniProt Q9UBN7); assay: Selectivity panel (Table 3); assay type: biochemical
# LSD1 = LSD1 (Homo sapiens, UniProt O60341); assay: Selectivity panel (Table 3); assay type: biochemical
# WDR5 [1] = biological target: T1, WDR5 (Homo sapiens, UniProt P61964); assay: Selectivity panel (Table 3); assay type: binding
# WDR5 [2] = biological target: T1, WDR5; assay: WDR5 TR-FRET Assay; assay type: binding; conditions: 5 nM WDR5 protein, 10 nM peptide, read-out: IC50 (MLL1-WDR5 PPI inhibitory activity)
# Protocol: WDR5 TR-FRET Assay Procedure: Stock compounds were transferred to the assay plate by Echo Liquid Handler. Reactions were performed in the assay buffer (1×PBS, 300 mM NaCl, 0.5 mM TCEP, 0.1% CHAPS) containing 5 nM WDR5 protein, 10 nM peptide (Ac-ARTEVHLRKS-[Ahx-Ahx][C]-Alexa Fluor 488-NH2) and 0.25 nM Tb-anti His antibody (Tb-Ab) in 384-well white plate (PerkinElmer) with a final volume of 20 μl. Compounds were incubated with WDR5 protein for 30 min at room temperature. Plates were covered, protected from light and incubated for 60 min. at room temperature after adding the peptide and Tb-Ab. EnVision Multimode Plate Reader (PerkinElmer) was used for the TR-FRET assay with excitation wavelength at 340 nm and emission wavelength at 495 and 520 nm. The ratio of the 520/495 nm wavelengths were used to assess the degree of the FRET signal. IC50 was calculated by fitting the inhibition data using XLfit software to sigmoidal dose-response model.
# BRD2-BD1 = biological target: T2, BRD2-BD1 (Homo sapiens, UniProt P25440); assay: Selectivity panel (Table 3); assay type: binding
# T2 construct: BRD2-BD1
# T2 sequence (P25440 74-180 limits assumed): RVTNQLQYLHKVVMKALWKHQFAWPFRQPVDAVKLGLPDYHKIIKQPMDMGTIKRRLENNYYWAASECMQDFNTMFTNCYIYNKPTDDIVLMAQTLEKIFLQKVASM
# [3] = Compound formulation stability assay; assay type: physicochemical; conditions: 10 mg/mL in 10% DMSO/10% solutol HS 15/80% water, 2-8° C.
# Protocol: Compound formulation stability assay: Test articles were formulated in 10% DMSO/10% solutol HS 15/80% water and stored at 4° C. Formulated compounds were analyzed by a HPLC-UV method for actual concentrations and % remaining on Day 1, 4 and 7 after formulation to determine the stability of the formulated test article. The HPLC system was equipped with Shimadzu LC-20 high-performance liquid chromatograph, SIL-20AC auto sampler, LC-20AB pump and SPD-M20A detector. A Waters XBridge C18 (4.6*100 mm) column was applied for the separation. […]
# [4] = PK profile of HBI-2375 in plasma, brain and CSF in SD rats; assay type: in vivo; conditions: for AUC(0-t) / Cmax / MRT last / Tmax / Kp: rat; for Kp: po, 40 mg/kg, read-out: AUClast Ratio Tissue/Plasma
# Protocol: EXAMPLE 3: PK profile of HBI-2375 (compound of Formula (IIIb) (HYBI-084) in plasma, brain, and cerebrospinal fluid (CSF) in SD rats: This study was conducted in accordance with the Study Protocol and Pharmaron (Ningbo) TSP's Standard Operating Procedures (SOPs) following all regulatory protocols. This study was conducted under non-GLP environment.
# The maximal concentrations of HBI-2375 in CSF for males and females were at 1 hr post-dose. The maximal concentrations of HBI-2375 in brain were at 15 min post-dose for males and at 1 hr post-dose for females. The mean values of AUClast for HBI-2375 from high to low were: brain>plasma>CSF for males, and plasma>brain>CSF for females.
# Following a single oral gavage administration of HBI-2375 at 40 mg/kg in SD rats, concentrations of HBI-2375 in plasma, brain, and CSF were determined by LC-MS/MS methods. […] The maximal concentrations of HBI-2375 in CSF for males and females were at 1 hr post-dose. The maximal concentrations of HBI-2375 in brain were at 15 min post-dose for males and at 1 hr post-dose for females.
# CD73 = CD73 (Homo sapiens, UniProt P21589); assay: Selectivity panel (Table 3); assay type: biochemical
# Chain of CD73 (P21589 27-549, species assumed): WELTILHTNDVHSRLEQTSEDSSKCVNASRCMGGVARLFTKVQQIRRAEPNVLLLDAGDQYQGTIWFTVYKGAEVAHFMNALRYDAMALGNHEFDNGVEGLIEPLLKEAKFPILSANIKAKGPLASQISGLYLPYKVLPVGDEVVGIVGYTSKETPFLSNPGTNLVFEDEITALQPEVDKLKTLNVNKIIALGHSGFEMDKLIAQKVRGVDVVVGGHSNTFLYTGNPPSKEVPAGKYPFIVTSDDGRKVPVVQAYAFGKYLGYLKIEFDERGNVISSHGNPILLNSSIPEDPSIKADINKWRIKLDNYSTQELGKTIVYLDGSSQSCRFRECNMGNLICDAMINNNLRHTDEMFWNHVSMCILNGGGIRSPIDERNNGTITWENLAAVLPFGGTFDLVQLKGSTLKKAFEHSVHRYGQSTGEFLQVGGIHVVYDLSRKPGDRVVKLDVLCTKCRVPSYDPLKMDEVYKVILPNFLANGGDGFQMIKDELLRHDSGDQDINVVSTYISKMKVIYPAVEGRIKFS
# [5] = Metabolite ID in Liver S9; assay type: in vitro ADME; conditions: HBI-2375 and metabolites in Human liver S9
# BRD4-BD2 = biological target: T3, BRD4-BD2 (Homo sapiens, UniProt O60885); assay: Selectivity panel (Table 3); assay type: binding
# T3 construct: BRD4-BD2
# [6] = Sprague-Dawley, SD rats, single PO 40 mg/kg, CSF, female
# [7] = Sprague-Dawley, SD rats, single PO 40 mg/kg, CSF, male
# [8] = Sprague-Dawley, SD rats, single PO 40 mg/kg, brain, female
# [9] = Sprague-Dawley, SD rats, single PO 40 mg/kg, brain, male
# [10] = Sprague-Dawley, SD rats, single PO 40 mg/kg, plasma, female
# [11] = Sprague-Dawley, SD rats, single PO 40 mg/kg, plasma, male
# [12] = both sexes, SD rats, single PO 40 mg/kg, brain, mean of male and female
# [13] = both sexes, SD rats, single PO 40 mg/kg, plasma, mean of male and female
# Chain of HDAC6 (Q9UBN7 whole entry, species assumed): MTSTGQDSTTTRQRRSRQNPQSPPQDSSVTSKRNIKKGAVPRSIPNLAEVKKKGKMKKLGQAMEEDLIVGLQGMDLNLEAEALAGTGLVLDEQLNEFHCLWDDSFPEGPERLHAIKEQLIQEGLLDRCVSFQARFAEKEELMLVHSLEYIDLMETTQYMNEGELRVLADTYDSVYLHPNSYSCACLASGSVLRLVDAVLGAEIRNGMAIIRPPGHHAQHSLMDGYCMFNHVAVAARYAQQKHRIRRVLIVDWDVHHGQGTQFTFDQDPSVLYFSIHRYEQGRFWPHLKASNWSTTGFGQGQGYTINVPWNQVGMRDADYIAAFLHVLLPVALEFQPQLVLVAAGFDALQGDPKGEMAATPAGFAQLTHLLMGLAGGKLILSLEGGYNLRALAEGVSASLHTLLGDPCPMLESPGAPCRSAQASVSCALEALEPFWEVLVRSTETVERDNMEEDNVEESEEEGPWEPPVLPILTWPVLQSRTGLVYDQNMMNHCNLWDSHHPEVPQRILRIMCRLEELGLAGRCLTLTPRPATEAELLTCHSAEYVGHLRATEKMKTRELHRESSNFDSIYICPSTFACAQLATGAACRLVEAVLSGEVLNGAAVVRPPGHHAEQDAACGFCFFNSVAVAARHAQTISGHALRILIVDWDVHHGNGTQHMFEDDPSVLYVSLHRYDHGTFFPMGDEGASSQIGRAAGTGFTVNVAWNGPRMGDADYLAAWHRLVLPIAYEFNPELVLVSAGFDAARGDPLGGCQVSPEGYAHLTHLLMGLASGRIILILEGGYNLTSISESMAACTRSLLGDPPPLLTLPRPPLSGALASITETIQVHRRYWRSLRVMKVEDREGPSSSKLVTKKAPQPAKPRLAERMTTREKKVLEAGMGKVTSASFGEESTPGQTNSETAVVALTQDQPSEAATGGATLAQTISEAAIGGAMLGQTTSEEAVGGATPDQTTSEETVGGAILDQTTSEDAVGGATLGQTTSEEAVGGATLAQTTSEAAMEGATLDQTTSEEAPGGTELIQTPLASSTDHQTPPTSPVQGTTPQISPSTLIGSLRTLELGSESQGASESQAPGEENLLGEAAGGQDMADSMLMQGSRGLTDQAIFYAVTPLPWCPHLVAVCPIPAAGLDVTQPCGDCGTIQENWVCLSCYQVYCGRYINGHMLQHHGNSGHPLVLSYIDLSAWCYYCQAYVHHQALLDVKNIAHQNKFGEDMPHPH
compound,measurement,setting,value
"Cc1c(F)c(N)cc(C(=O)Nc2cc(-n3cc(C(=O)N4CCN(C)CC4)nn3)c(F)cc2N2C[C@@H](C)N(C)[C@@H](C)C2)c1Cl [HYBI-084, 5-amino-2-chloro-4-fluoro-N-(4-fluoro-5-(4-(4-methylpiperazine-1-carbonyl)-1H-1,2,3-triazol-1-yl)-2-((3S,5R)-3,4,5-trimethylpiperazin-1-yl)phenyl)-3-methylbenzamide]",IC50,HDAC6,> 1000 nM
same,IC50,LSD1,> 1000 nM
same,IC50,WDR5 [1],0.683 nM
same,IC50,WDR5 [2],4.48 nM
same,IC50,BRD2-BD1,> 1000 nM
same,Accuracy % (Day 0),[3]; Day 0,92.8%
same,Formulation Appearance (Day 0),[3]; Day 0,clear solution
same,Remaining % (Day 0),[3]; Day 0,100%
same,Accuracy % (Day 1),[3]; Day 1,93.4%
same,Formulation Appearance (Day 1),[3]; Day 1,clear solution
same,Remaining % (Day 1),[3]; Day 1,101%
same,Accuracy % (Day 4),[3]; Day 4,92.9%
same,Formulation Appearance (Day 4),[3]; Day 4,clear solution
same,Remaining % (Day 4),[3]; Day 4,100%
same,Accuracy % (Day 7),[3]; Day 7,91.5%
same,Formulation Appearance (Day 7),[3]; Day 7,clear solution
same,Remaining % (Day 7),[3]; Day 7,98.7%
same,AUClast Ratio Female/Male,"[4]; SD rats, 40 mg/kg PO, CSF",6.66
same,C24hr/Cmax Ratio (%),"[4]; SD rats, 40 mg/kg PO, CSF, female",11.6%
same,AUClast Ratio Tissue/Plasma,"[4]; SD rats, 40 mg/kg PO, CSF/plasma, male, listed as HBI-2375, 40 mg/kg",0.0111
same,AUClast Ratio Female/Male,"[4]; SD rats, 40 mg/kg PO, brain",1.54
same,C24hr/Cmax Ratio (%),"[4]; SD rats, 40 mg/kg PO, brain, female",3.24%
same,C24hr/Cmax Ratio (%),"[4]; SD rats, 40 mg/kg PO, brain, male",4.18%
same,AUClast from high to low,"[4]; SD rats, 40 mg/kg PO, females",plasma>brain>CSF
same,AUClast from high to low,"[4]; SD rats, 40 mg/kg PO, males",brain>plasma>CSF
same,AUClast Ratio Female/Male,"[4]; SD rats, 40 mg/kg PO, plasma",2.18
same,C24hr/Cmax Ratio (%),"[4]; SD rats, 40 mg/kg PO, plasma, female",1.17%
same,C24hr/Cmax Ratio (%),"[4]; SD rats, 40 mg/kg PO, plasma, male",0.697%
same,distribution,"[4]; SD rats, single PO 40 mg/kg",distributed to CSF and brain
same,duration of exposure in CSF and brain,"[4]; SD rats, single PO 40 mg/kg",24 h
same,in-life observations,"[4]; SD rats, single PO 40 mg/kg",no abnormalities were observed
same,AUClast,"[4]; SD rats, single PO 40 mg/kg, brain, female",3394 ng·h/g
same,AUClast,"[4]; SD rats, single PO 40 mg/kg, brain, male",2199 ng·h/g
same,time of maximal concentration,"[4]; SD rats, single PO 40 mg/kg, brain, males",15 min
same,AUClast,"[4]; SD rats, single PO 40 mg/kg, brain, mean of male and female",2796 ng·h/g
same,concentration at 24 h,"[4]; SD, brain, Single PO Rat 40 mg/kg, read-out: Mean Brain Concentration, Cmin = 24 h",22.1 ng/g
same,AUC(0-t),[4]; [6],124 ng·h/mL
same,Cmax,[4]; [6],24 ng/mL
same,MRT last,[4]; [6],8.41 h
same,Tmax,"[4]; Sprague-Dawley, SD rats, single PO 40 mg/kg, CSF, female, read-out: Tmax",1 h
same,AUC(0-t),[4]; [7],18.6 ng·h/mL
same,Cmax,[4]; [7],7.48 ng/mL
same,MRT last,[4]; [7],2 h
same,Tmax,"[4]; Sprague-Dawley, SD rats, single PO 40 mg/kg, CSF, male, read-out: Tmax",1 h
same,Cmax,[4]; [8],833 ng/g
same,MRT last,[4]; [8],5.81 h
same,Tmax,"[4]; Sprague-Dawley, SD rats, single PO 40 mg/kg, brain, female, read-out: Tmax",1 h
same,Cmax,[4]; [9],413 ng/g
same,MRT last,[4]; [9],7 h
same,AUC(0-t),[4]; [10],3660 ng·h/mL
same,Cmax,[4]; [10],934 ng/mL
same,MRT last,[4]; [10],5.11 h
same,AUC(0-t),[4]; [11],1680 ng·h/mL
same,Cmax,[4]; [11],544 ng/mL
same,MRT last,[4]; [11],4.5 h
same,Tmax,"[4]; both sexes, Sprague-Dawley, SD rats, single PO 40 mg/kg, plasma, males and females, read-out: Tmax (time of maximal concentration) (converted)",0.25 h
same,Cmax,[4]; [12],623 ng/g
same,MRT last,[4]; [12],6.4 h
same,AUC(0-t),[4]; [13],2670 ng·h/mL
same,Cmax,[4]; [13],739 ng/mL
same,MRT last,[4]; [13],4.8 h
same,Kp,"[4]; female, Sprague-Dawley, CSF/plasma, SD rats, 40 mg/kg PO, CSF/plasma, female",0.0338
same,Kp,"[4]; female, Sprague-Dawley, brain/plasma, SD rats, 40 mg/kg PO, brain/plasma, female",0.928
same,AUC(0-t),"[4]; female, Sprague-Dawley, SD rats, single PO 40 mg/kg, brain, females",3390 ng·h/mL
same,crossing of the blood-brain barrier,[4]; general statement,can cross the blood-brain barrier
same,Kp,"[4]; male, Sprague-Dawley, CSF/plasma, SD rats, 40 mg/kg PO, CSF/plasma, male",0.011
same,Kp,"[4]; male, Sprague-Dawley, brain/plasma, SD rats, 40 mg/kg PO, brain/plasma, male",1.31
same,AUC(0-t),"[4]; male, Sprague-Dawley, SD rats, single PO 40 mg/kg, brain, males",2200 ng·h/mL
same,Tmax,"[4]; SD rats, single PO 40 mg/kg, brain, male, read-out: Tmax",0.25 h
same,Tmax,"[4]; SD rats, single PO 40 mg/kg, plasma, female, read-out: Tmax",0.25 h
same,Tmax,"[4]; SD rats, single PO 40 mg/kg, plasma, male, read-out: Tmax",0.25 h
same,IC50,CD73,> 1000 nM
same,Relative Abundance (UV Peak Area % Total),[5],78.70%
same,IC50,BRD4-BD2,> 1000 nM
